Assay results taken from patent publication US20220017541A1, “INHIBITORS OF ARGINASE” (Black Belt Tx Ltd, priority 2018, published 2022).

Experiments:
recombinant human ARG1 = biological target: T1, recombinant human ARG1 (Homo sapiens, UniProt P05089); experiment: Arginase enzymatic assay in vitro, recombinant human ARG1 (colorimetric urea detection); assay type: biochemical; conditions: recombinant human arginase 1; read-out: IC50 Inh rhARG1
T1 construct: purchased R&D System 5868-AR-010
T1 sequence (P05089 1-322): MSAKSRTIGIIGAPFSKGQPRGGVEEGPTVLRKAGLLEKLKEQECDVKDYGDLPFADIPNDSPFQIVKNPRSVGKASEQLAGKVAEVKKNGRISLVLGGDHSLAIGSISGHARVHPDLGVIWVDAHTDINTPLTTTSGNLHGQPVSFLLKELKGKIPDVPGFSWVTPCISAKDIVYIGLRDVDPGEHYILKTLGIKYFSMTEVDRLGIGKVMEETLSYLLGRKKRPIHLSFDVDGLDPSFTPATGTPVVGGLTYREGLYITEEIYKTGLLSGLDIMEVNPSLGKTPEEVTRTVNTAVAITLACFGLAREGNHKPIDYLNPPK
From the text: (§1) Arginase catalyzes the hydrolysis of L-arginine into L-ornithine and urea. Urea amount produced by this reaction can be detected using a colorimetric assay and used as an indirect measurement of arginase activity. An adapted protocol from (Baggio, R., et al., J Pharmacol Exp Ther, 1999. 290(3): p. 1409-16) was used for the testing the ability of exemplary compounds of the invention to inhibit arginase enzymes from a variety of sources including recombinant human ARG1 and 2, lysates of human red blood cells (RBC) and intact murine macrophages, as described below.
(§2) Compounds of the invention were prepared from powder as 10 mM stock solutions in DMSO and stored in presence of N2 neutral atmosphere at −80° C. For IC50 determination and just before the assay, exemplary compounds were successively diluted to get the following concentrations: 210, 70, 21, 7, 2.1, 0.7, 0.21, 0.07, 0.021, 0.007, 0.0021 and 0.0007 μM (i.e., final concentrations in the wells of 30, 10, 3, 1, 0.3, 0.1, 0.03, 0.01, 0.003, 0.001, 0.0003, 0.0001 μM).
(§3) Assays were run in clear flat bottom 96-well plates (Nunclon, Cat. No. #167008) adding in each well the following solutions in this order: (1) 10 μl of Tris-HCl solution supplemented with 0.1% bovine serum albumin (BSA) containing 1.563 μg/ml recombinant human ARG1 (R&D System, Cat. No. #5868-AR-010), (2) 30 μl of Tris-HCl buffer containing 10 mM MnCl2 and (3) 10 μL of a pre-dilution of each test article or DMSO (vehicle). Compounds were allowed to interact with the enzyme-cofactor complex pre-incubating the plate at 37° C. for 30 min. To start the reaction, 20 μl of 50 mM L-arginine (Sigma Aldrich Cat. #A5006-100G) were added to each well in exception of the blank reaction (see below). All reactions were allowed to happen for 1 h at 37° C. To detect the urea production, reactions were stopped by adding 200 μl of a mixture of reagent A (4 mM o-phthalaldehyde in 50 mM Boric Acid, 1 M Sulfuric Acid, 0.03% Brij-35 (w/v)) and reagent B (4 mM N-(1-naphthyl)ethylenediamine in 50 mM Boric Acid, 1 M Sulfuric Acid, 0.03% Brij-35 (w/v)) in equal proportion. Color product was developed for 1 h at room temperature (RT) protected from light and then absorbance at 520 nm was measured using a Multifunction Microplate Reader (Synergy 4, Bioteck). Blank reactions were carried out by adding the L-arginine substrate only after the addition of mixture A-B. All reactions were carried out in duplicates.
(§4) The inhibition of urea production was calculated subtracting the absorbance from the blank reaction (zero enzymatic urea production) to the absorbance from all reactions and it was expressed as the percentage of the absorbance from the reaction containing the test article with respect to the absorbance from vehicle reaction (maximum of urea production).

recombinant human ARG2 = biological target: T2, recombinant human ARG2 (Homo sapiens, UniProt P78540); experiment: Arginase enzymatic assay in vitro, recombinant human ARG2 (colorimetric urea detection); assay type: biochemical; conditions: recombinant human arginase 2; read-out: IC50 Inh rhARG2
T2 construct: purchased BPS Bioscience 71659
T2 sequence (P78540 23-354): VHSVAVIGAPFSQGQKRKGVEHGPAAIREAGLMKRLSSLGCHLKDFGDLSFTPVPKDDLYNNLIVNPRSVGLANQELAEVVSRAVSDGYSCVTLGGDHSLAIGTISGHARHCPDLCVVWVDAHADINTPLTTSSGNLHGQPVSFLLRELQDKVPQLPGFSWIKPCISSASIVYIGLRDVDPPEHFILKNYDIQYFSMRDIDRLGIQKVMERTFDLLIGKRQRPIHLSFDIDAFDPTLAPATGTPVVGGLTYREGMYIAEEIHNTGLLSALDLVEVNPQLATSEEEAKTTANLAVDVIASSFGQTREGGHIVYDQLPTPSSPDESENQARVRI
From the text: as §1, §2, §3, §4
For testing inhibitory activity over recombinant human arginase II, 10 μl of Tris-HCl solution supplemented with 0.1% BSA containing 1.5 μg/ml recombinant human ARG2 (BPS Bioscience, Cat. No. #71659) was used instead of ARG1.

[1] = biological target: T3, native ARG1 enzyme in lysates of RBC (Homo sapiens, UniProt P05089); experiment: Arginase enzymatic assay in RBC lysates from healthy donors; assay type: biochemical; conditions: human red blood cell lysates; read-out: IC50 Inh RBC
T3 construct: native ARG1 enzyme in lysates of RBC; from tissue; host or cells: human red blood cell lysates from healthy donors
T3 sequence (P05089 1-322): T1 sequence (P05089 1-322)
From the text: as §1, §2, §3, §4
For testing inhibitory activity over RBC lysates from healthy donors, 10 μl of Tris-HCl solution supplemented with 0.1% BSA containing 160 μg RBC lysates per well was used instead.

[2] = biological target: T4, arginase activity in intact BMM-M2 cells (Mus musculus, UniProt Q61176); experiment: Cell-based arginase assay: urea production by cultured BMM-M2 cells; conditions: 10 μM test compound, 24 h, read-out: Inh. urea production @10 μM (%)
T4 construct: endogenous in cells; host or cells: bone-marrow derived macrophages from male C57BL/6 mice, polarised to M2 with IL-4
T4 sequence (Q61176 1-323): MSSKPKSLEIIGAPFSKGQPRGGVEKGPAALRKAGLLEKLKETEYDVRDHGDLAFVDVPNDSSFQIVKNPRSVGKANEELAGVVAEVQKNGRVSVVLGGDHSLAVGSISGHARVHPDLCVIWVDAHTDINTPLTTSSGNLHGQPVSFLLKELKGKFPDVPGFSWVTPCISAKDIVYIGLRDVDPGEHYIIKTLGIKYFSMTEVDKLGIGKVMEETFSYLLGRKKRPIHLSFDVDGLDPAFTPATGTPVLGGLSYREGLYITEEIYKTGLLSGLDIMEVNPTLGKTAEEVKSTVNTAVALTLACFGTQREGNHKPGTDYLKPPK
Protocol: Murine bone-marrow derived macrophages (BMM) represent a convenient in vitro model that enables differentiation of these cells towards M1 or M2 macrophages. Briefly, male C57BL/6 mice 7-8 weeks old were euthanized by carbon dioxide asphyxiation. Femur and tibiae bones were removed under aseptic conditions and collected in a plate containing sterile ice-cold PBS 1×. After sterilization of bones in 70% ethanol during 1 min, bones were placed into a clean Petri dish containing fresh sterile ice-cold PBS 1×. The ends of each bone were cut and the marrow cavity was flushed using forceps and syringes filled with pre-warmed complete α-MEM growing medium (α-MEM without red phenol (Life Technologies, Cat. No. #41061-029) supplemented with 10% FBS, penicillin and streptomycin). Bone marrow (BM) cells were harvested in a 15 ml clean tube and centrifuged at 400 g for 8 min at RT. Supernatant was discarded and BM pellet was re-suspended in 5 ml Ammonium-Chloride-Potassium (ACK) buffer for 5 minutes at RT to lysis RBC. BM cell suspension was centrifuged at 400 g for 8 min at RT. Supernatant was discarded and BM cell pellet was re-suspended in complete α-MEM growing medium and passed through a 70 μm cell restrainer to eliminate solid contaminates and cellular aggregates. BM cells were seeded in 8 ml of complete α-MEM growing medium supplemented with 100 ng/ml recombinant mouse M-CSF (R&D Systems, Cat. No. #416-ML-050) in 100-mm dishes. BM cells were cultured overnight to get rid of contaminating stromal cells in a humidified incubator with 5% CO2 at 37° C. At the following day, non-adherent cells were collected in a clean 15-ml tube and centrifuged at 400 g for 8 min at RT. Cell pellet was re-suspended in complete α-MEM growing medium and counted using a hemocytometer Neubauer's chamber. Hematopoietic precursor cells were differentiated into BMM in presence of complete α-MEM growing medium supplemented 50 ng/ml M-CSF for 3 days. Finally to polarize BMM towards M2 phenotype, cells were incubated in presence 20 ng/ml of recombinant mouse IL-4 (R&D Systems, Cat. No. #404-ML-010) added to fresh complete α-MEM growing medium supplemented 50 ng/ml M-CSF for 24 h.
At the day of the experiment, BMM-M2 were treated for 24 h with vehicle (DMSO) or compounds of the invention at 1 and 10 μM prepared in fresh complete α-MEM growing medium supplemented 50 ng/ml M-CSF, 20 ng/ml IL-4 and 10 mM L-arginine (Cat. No. #A5006, Sigma Aldrich). At the next day, 70 μl aliquots of each treated culture media (supernatants) were transferred into a clear 96-well plate. Measurements of urea produced by BMM-M2 were performed using the adapted protocol detailed in Example B1. Wells without BMM-M2 containing only treatment media (vehicle) were used to determine the zero cell-derived urea production (blank). All treatments were carried out in triplicates.
The inhibition of urea production was calculated subtracting the absorbance from the blank to the absorbance from all treatments and it was expressed as the percentage of the absorbance from the reaction containing the test article treatment with respect to the absorbance from vehicle treatment (maximum of urea production).

Compound	IC50 (recombinant human ARG1)	IC50 (recombinant human ARG2)	IC50 [1]	inhibition at 10 µM [2]
CC(c1c(F)cccc1F)N1CCC(C(N)(CCCCB(O)O)C(=O)O)CC1 (single isomer, unassigned) [Compound 92, 2-amino-6-borono-2-(1-(1-(2,6-difluorophenyl)ethyl)piperidin-4-yl)hexanoic acid]	0.5 to 5 µM	0.5 to 5 µM		< 15%
NC(CCCCB(O)O)(C(=O)O)C1CCN(C2CCCc3cc(Cl)ccc32)CC1 (stereo not drawn) [Compound 16, 2-amino-6-borono-2-(1-(6-chloro-1,2,3,4-tetrahydronaphthalen-1-yl)piperidin-4-yl)hexanoic acid]	< 0.5 µM	< 0.5 µM	< 0.5 µM	
NC(CCCCB(O)O)(C(=O)O)C1CCN(C2CCCc3cc(Cl)ccc32)C1 (stereo not drawn) [Compound 48, 2-amino-6-borono-2-[1-(6-chlorotetralin-1-yl)pyrrolidin-3-yl]hexanoic acid]	0.5 to 5 µM	0.5 to 5 µM		< 15%
NC(CCCCB(O)O)(C(=O)O)C1CCN(C2CCc3cc(Cl)ccc32)C1 (stereo not drawn) [Compound 82, 2-amino-6-borono-2-[1-(5-chloroindan-1-yl)pyrrolidin-3-yl]hexanoic acid]	< 0.5 µM	0.5 to 5 µM		> 25%

The remaining lines, values ahead:

IC50 (recombinant human ARG1)	IC50 (recombinant human ARG2)	IC50 [1]	inhibition at 10 µM [2]	Compound
< 0.5 µM	< 0.5 µM	< 0.5 µM		NC(CCCCB(O)O)(C(=O)O)C1CCN(C2CCCc3cccnc32)CC1 (single isomer, unassigned) [Compound 32, 2-amino-6-borono-2-(1-(5,6,7,8-tetrahydroquinolin-8-yl)piperidin-4-yl)hexanoic acid]
< 0.5 µM	0.5 to 5 µM		> 25%	CC(c1c(Cl)cccc1Cl)N1CCC(C(N)(CCCCB(O)O)C(=O)O)CC1 (single isomer, unassigned) [Compound 91, 2-amino-6-borono-2-(1-(1-(2,6-dichlorophenyl)ethyl)piperidin-4-yl)hexanoic acid]
0.5 to 5 µM	0.5 to 5 µM	< 0.5 µM		NC(=O)C(N)(CCCCB(O)O)C1CCN(C2CCc3cc(Cl)ccc32)CC1 (stereo not drawn) [Compound 81, (5,6-diamino-5-(1-(5-chloro-2,3-dihydro-1H-inden-1-yl)piperidin-4-yl)-6-oxohexyl)boronic acid]
